Data on 11 compounds can be found in ChEMBL document CHEMBL1201862, “PubChem BioAssay data set” (2004).

Some test systems named below: 786-0; A549; BT-549; CCRF-CEM; DU-145; HCT-116; HT-29; M14; MOLT-4; Malme-3M; NCI-H226; NCI-H522; OVCAR-3; OVCAR-5; OVCAR-8; SF-539; SK-MEL-28; SW-620; T47D; RPMI-8226.
Holding throughout (experiment): DTP human tumour cell line panel, 48 h

SMILES strings stand for the structures.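 Briefly, cells in 96-well plates were exposed to five compound concentrations for 48 h, and endpoints were estimated by linear interpolation. GI50 marks 50% less growth.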 Activity calls are given as the source filed them. No stated cut-off is given here; in the data, active = GI50 up to about 1.1 µM and inactive = higher.

As to `CC1C2CC(CC2=O)C1(C)C` (configuration not stated), the GI50 in the experiment with 786-0, with A549, in the experiment on BT-549, in the experiment on CCRF-CEM, in the experiment on DU-145 and with HCT-116 was > 100 µM (inactive) in each case. Also, the GI50 with HT-29, in the experiment with M14, with MOLT-4, in the experiment on Malme-3M, with NCI-H226 and in the experiment on NCI-H522 was > 100 µM (inactive) in each case. Also, the GI50 in the experiment on OVCAR-3, with OVCAR-5, with OVCAR-8, in the experiment on SF-539, in the experiment on SK-MEL-28 and with SW-620 was > 100 µM (inactive) throughout. In addition, in the experiment with T47D, the GI50 (in general, the concentration that inhibits growth by half) was > 100 µM (inactive).
As for `O=C(N(C1=CCCC1)N(c1ccccc1)c1ccccc1)C(F)(F)F`, the GI50 in the experiment on 786-0 was 27.7 µM (inactive); in the experiment on A549, 26.4 µM (inactive); with BT-549, 29.9 µM (inactive); in the experiment on CCRF-CEM, 23.4 µM (inactive); in the experiment on DU-145 it was 30.8 µM (inactive); in the experiment with HCT-116, 21.5 µM (inactive). Moreover, the GI50 in the experiment on HT-29 was 17.3 µM (inactive); in the experiment with M14 it was 26.2 µM (inactive); in the experiment on MOLT-4, 14 µM (inactive); with Malme-3M it was 3.76 µM (inactive); with NCI-H226, 19.7 µM (inactive); in the experiment on NCI-H522, 10.4 µM (inactive). Besides, the GI50 in the experiment with OVCAR-3 is 18.9 µM (inactive); with OVCAR-5, 27 µM (inactive); in the experiment with OVCAR-8 it was 29.9 µM (inactive); in the experiment with SF-539, 20.2 µM (inactive); with SK-MEL-28, 28.4 µM (inactive); with SW-620, 20.2 µM (inactive). For the same compound, in the experiment on T47D, the GI50 is 17 µM (inactive).
As for `CCOC(=O)NCC(=O)NCC(=O)NCC(N)=O`, the GI50 in the experiment on 786-0, with A549, in the experiment on BT-549, with CCRF-CEM, with DU-145 and with HCT-116 was > 100 µM (inactive) in each case. Further, the GI50 in the experiment on HT-29, with M14, in the experiment on MOLT-4, in the experiment on Malme-3M, in the experiment with NCI-H226 and with NCI-H522 was > 100 µM (inactive) each time. Besides, the GI50 in the experiment with OVCAR-3, with OVCAR-5, in the experiment with OVCAR-8, with RPMI-8226, with SK-MEL-28 and with SW-620 was > 100 µM (inactive) throughout. In the experiment with T47D, the GI50 is > 100 µM (inactive).
With `COc1cc2c(cc1OC)C(=O)/C(=C/c1ccc([N+](=O)[O-])cc1)CC2`, the GI50 in the experiment on 786-0, with A549, in the experiment with BT-549, with CCRF-CEM, in the experiment on DU-145 and in the experiment with HCT-116 was > 10 µM (inactive) in each case. In addition, the GI50 in the experiment on HT-29, in the experiment with M14, with MOLT-4, with Malme-3M, in the experiment on NCI-H226 and in the experiment on OVCAR-3 was > 10 µM (inactive) throughout. Further, the GI50 in the experiment on OVCAR-5, in the experiment on OVCAR-8, in the experiment on RPMI-8226, in the experiment on SF-539, with SK-MEL-28 and with SW-620 was > 10 µM (inactive) in each case. Further, in the experiment on T47D, the GI50 was > 10 µM (inactive).
Turning to `O=C1C=Cc2c(Cl)sc(Cl)c21`, the GI50 in the experiment on 786-0 is 0.94 µM (active); in the experiment with A549 it was 4.24 µM (inactive); in the experiment on BT-549 it was 3.08 µM (inactive); with CCRF-CEM it was 0.234 µM (active); in the experiment on DU-145, 2.32 µM (inactive); in the experiment on HCT-116, 0.752 µM (active). Moreover, the GI50 in the experiment on HT-29 is 1.46 µM (inactive); in the experiment with M14, 1.87 µM (inactive); in the experiment with MOLT-4, 0.12 µM (active); with NCI-H226 it was 6.4 µM (inactive); in the experiment on OVCAR-3, 1.85 µM (inactive); in the experiment with OVCAR-5, 4.3 µM (inactive). For the same compound, the GI50 with OVCAR-8 was 1.6 µM (inactive); in the experiment with RPMI-8226 it was 0.675 µM (active); with SF-539 it was 1.48 µM (inactive); in the experiment with SK-MEL-28 it was 1.73 µM (inactive); in the experiment with SW-620, 0.845 µM (active); in the experiment on T47D, 1.81 µM (inactive).
`Cc1ccc(/C=C2\CCCC(CN(C)C)C2=O)cc1` (configuration not stated): the GI50 with 786-0 was 1.63 µM (inactive); in the experiment with A549, 15.6 µM (inactive); with BT-549 it was 2.49 µM (inactive); with CCRF-CEM it was 1.26 µM (inactive); in the experiment with DU-145, 10.2 µM (inactive); in the experiment on HCT-116, 1.69 µM (inactive). Also, the GI50 with HT-29 is 1.69 µM (inactive); with M14, 1.81 µM (inactive); with MOLT-4, 2.28 µM (inactive); in the experiment with Malme-3M, 1.91 µM (inactive); in the experiment with NCI-H226, 2.56 µM (inactive); with NCI-H522 it was 0.0951 µM (active). For the same compound, the GI50 with OVCAR-3 was 1.76 µM (inactive); with OVCAR-5 it was 15.8 µM (inactive); in the experiment with OVCAR-8, 3.04 µM (inactive); in the experiment with SF-539 it was 2.84 µM (inactive); in the experiment on SK-MEL-28, 1.95 µM (inactive); in the experiment with SW-620, 1.53 µM (inactive). In addition, the GI50 with T47D is 1.75 µM (inactive).
As for `COc1ccc(N(C(=O)Nc2ccc(Cl)c(Cl)c2)c2ccccc2)cc1`, the GI50 in the experiment with 786-0, in the experiment on A549, with BT-549, with CCRF-CEM, with DU-145 and in the experiment on HCT-116 was > 10 µM (inactive) in each case. Moreover, the GI50 with HT-29, with M14, in the experiment with MOLT-4, in the experiment with Malme-3M, with NCI-H226 and with NCI-H522 was > 10 µM (inactive) throughout. In addition, the GI50 in the experiment with OVCAR-3, with OVCAR-5, with OVCAR-8, in the experiment with SF-539, with SK-MEL-28 and in the experiment on SW-620 was > 10 µM (inactive) throughout. Moreover, the GI50 in the experiment on T47D is > 10 µM (inactive).
Regarding `O=C(CC1(O)CCCCC1)OC1CCCC1`, the GI50 with 786-0, with A549, with BT-549, in the experiment on DU-145, in the experiment on HCT-116 and in the experiment on HT-29 was > 100 µM (inactive) in each case. Also, the GI50 in the experiment on M14, with Malme-3M, in the experiment on NCI-H226, in the experiment on NCI-H522, in the experiment on OVCAR-3 and in the experiment with OVCAR-5 was > 100 µM (inactive) throughout. Also, the GI50 in the experiment on OVCAR-8, with SF-539 and in the experiment with T47D was > 100 µM (inactive) in each case.
`CC1(CCCO)CCCCCC(C)(CCCO)C1=O` (configuration not stated): the GI50 with 786-0, in the experiment with A549, in the experiment with BT-549, with CCRF-CEM, with DU-145 and in the experiment on HCT-116 was > 100 µM (inactive) in each case. Also, the GI50 in the experiment with HT-29, in the experiment with M14, in the experiment on MOLT-4, in the experiment with Malme-3M, with NCI-H226 and with NCI-H522 was > 100 µM (inactive) throughout. The GI50 in the experiment on OVCAR-3, in the experiment on OVCAR-5, with OVCAR-8, with RPMI-8226, with SK-MEL-28 and in the experiment on SW-620 was > 100 µM (inactive) each time. Besides, the GI50 in the experiment with T47D is > 100 µM (inactive).
Regarding `COC(=O)/C=c1/c2ccccc2n2c1c1ccccc1[n+]2C`, the GI50 is 2.99 µM (inactive) in the experiment with 786-0; 3.82 µM (inactive) in the experiment on A549; 3.3 µM (inactive) in the experiment on BT-549; 3.3 µM (inactive) with CCRF-CEM; 6.41 µM (inactive) in the experiment on DU-145; 3.31 µM (inactive) with HCT-116. Also, the GI50 in the experiment on HT-29 is 3.79 µM (inactive); with M14 it was 3.99 µM (inactive); in the experiment with MOLT-4, 4.27 µM (inactive); in the experiment on Malme-3M it was 2.98 µM (inactive); with NCI-H226, 5.52 µM (inactive); with OVCAR-3, 3.55 µM (inactive). Besides, the GI50 in the experiment on OVCAR-5 is 4.6 µM (inactive); in the experiment with OVCAR-8 it was 3.33 µM (inactive); in the experiment on RPMI-8226, 2.77 µM (inactive); with SF-539 it was 3.82 µM (inactive); in the experiment on SK-MEL-28, 5.82 µM (inactive); in the experiment on SW-620 it was 2.76 µM (inactive). Besides, the GI50 with T47D is 3.86 µM (inactive).
Turning to `CC(C)C(CC(=O)OCC(CO)OC(=O)CC(C(C)C)C(C)C)C(C)C` (configuration not stated), the GI50 was 12.4 µM (inactive) in the experiment with 786-0; 11 µM (inactive) in the experiment with A549; 19.1 µM (inactive) with BT-549; 5.53 µM (inactive) in the experiment with CCRF-CEM; 15.4 µM (inactive) with DU-145; 16.2 µM (inactive) in the experiment with HCT-116. In addition, the GI50 in the experiment with HT-29 is 17.4 µM (inactive); with M14 it was 14.1 µM (inactive); in the experiment on MOLT-4, 10.1 µM (inactive); with Malme-3M, 15.1 µM (inactive); in the experiment on NCI-H226, 16.1 µM (inactive); with NCI-H522, 12.6 µM (inactive). Besides, the GI50 was 13.9 µM (inactive) in the experiment on OVCAR-3; 13 µM (inactive) in the experiment on OVCAR-5; 16.2 µM (inactive) in the experiment with SK-MEL-28; 13.6 µM (inactive) with SW-620; 16.6 µM (inactive) in the experiment with T47D.
